Measured values taken from PMC8217813, “Bridging Computational Vaccinology and Vaccine Development Through Systematic Identification, Characterization, and Downselection of Conserved and Variable Circumsporozoite Protein CD4 T Cell Epitopes From Diverse Plasmodium falciparum Strains” (Frontiers in Immunology, 2021).

Tested on: CD4 T cells co-cultured with autologous DCs from PBMCs
Type: cell-based, human
Conditions: positive = Stimulation Index ≥1.5-fold above baseline, 5 µg/mL peptide

DKHIEKYLKRIQNSLSTEWS [ICS9]
Percentage of donors demonstrating IFN-γ responses, DR1 (DR1 donors N=5, ICCS after 14-day co-culture): 40% | Percentage of donors demonstrating IL-2 responses, DR1 (DR1 donors N=5, ICCS): 20% | Percentage of donors demonstrating IL-4 responses, DR1 (DR1 donors N=5, ICCS): 0% | Percentage of donors demonstrating IL-10 responses, DR1 (DR1 donors N=5, ICCS): 0% | Percentage of donors demonstrating TNF-α responses, DR1 (DR1 donors N=5, ICCS): 40% | Percentage of donors demonstrating IFN-γ responses, DR3 (DR3 donors N=6, ICCS after 14-day co-culture): 50% | Percentage of donors demonstrating IL-2 responses, DR3 (DR3 donors N=6, ICCS): 33% | Percentage of donors demonstrating IL-4 responses, DR3 (DR3 donors N=6, ICCS): 33% | Percentage of donors demonstrating IL-10 responses, DR3 (DR3 donors N=6, ICCS): 17% | Percentage of donors demonstrating TNF-α responses, DR3 (DR3 donors N=6, ICCS): 50% | Percentage of donors demonstrating IFN-γ responses, DR4 (DR4 donors N=10, ICCS after 14-day co-culture): 70% | Percentage of donors demonstrating IL-2 responses, DR4 (DR4 donors N=10, ICCS): 50% | Percentage of donors demonstrating IL-4 responses, DR4 (DR4 donors N=10, ICCS): 0% | Percentage of donors demonstrating IL-10 responses, DR4 (DR4 donors N=10, ICCS): 10% | Percentage of donors demonstrating TNF-α responses, DR4 (DR4 donors N=10, ICCS): 70% | Percentage of donors demonstrating IFN-γ responses, DR7 (DR7 donors N=4, ICCS after 14-day co-culture): 75% | Percentage of donors demonstrating IL-2 responses, DR7 (DR7 donors N=4, ICCS): 50% | Percentage of donors demonstrating IL-4 responses, DR7 (DR7 donors N=4, ICCS): 25% | Percentage of donors demonstrating IL-10 responses, DR7 (DR7 donors N=4, ICCS): 0% | Percentage of donors demonstrating TNF-α responses, DR7 (DR7 donors N=4, ICCS): 50% | Percentage of donors demonstrating IFN-γ responses, DR8 (DR8 donors N=4, ICCS after 14-day co-culture): 50% | Percentage of donors demonstrating IL-2 responses, DR8 (DR8 donors N=4, ICCS): 75% | Percentage of donors demonstrating IL-4 responses, DR8 (DR8 donors N=4, ICCS): 0% | Percentage of donors demonstrating IL-10 responses, DR8 (DR8 donors N=4, ICCS): 0% | Percentage of donors demonstrating TNF-α responses, DR8 (DR8 donors N=4, ICCS): 100% | Percentage of donors demonstrating IFN-γ responses, DR9 (DR9 donors N=4, ICCS after 14-day co-culture): 50% | Percentage of donors demonstrating IL-2 responses, DR9 (DR9 donors N=4, ICCS): 50% | Percentage of donors demonstrating IL-4 responses, DR9 (DR9 donors N=4, ICCS): 0% | Percentage of donors demonstrating IL-10 responses, DR9 (DR9 donors N=4, ICCS): 0% | Percentage of donors demonstrating TNF-α responses, DR9 (DR9 donors N=4, ICCS): 50% | Percentage of donors demonstrating IFN-γ responses, DR11 (DR11 donors N=4, ICCS after 14-day co-culture): 75% | Percentage of donors demonstrating IL-2 responses, DR11 (DR11 donors N=4, ICCS): 50% | Percentage of donors demonstrating IL-4 responses, DR11 (DR11 donors N=4, ICCS): 0% | Percentage of donors demonstrating IL-10 responses, DR11 (DR11 donors N=4, ICCS): 0% | Percentage of donors demonstrating TNF-α responses, DR11 (DR11 donors N=4, ICCS): 75% | Percentage of donors demonstrating IFN-γ responses, DR13 (DR13 donors N=7, ICCS after 14-day co-culture): 43% | Percentage of donors demonstrating IL-2 responses, DR13 (DR13 donors N=7, ICCS): 43% | Percentage of donors demonstrating IL-4 responses, DR13 (DR13 donors N=7, ICCS): 0% | Percentage of donors demonstrating IL-10 responses, DR13 (DR13 donors N=7, ICCS): 14% | Percentage of donors demonstrating TNF-α responses, DR13 (DR13 donors N=7, ICCS): 57% | Percentage of donors demonstrating IFN-γ responses, DR15 (DR15 donors N=7, ICCS after 14-day co-culture): 57% | Percentage of donors demonstrating IL-2 responses, DR15 (DR15 donors N=7, ICCS): 43% | Percentage of donors demonstrating IL-4 responses, DR15 (DR15 donors N=7, ICCS): 14% | Percentage of donors demonstrating IL-10 responses, DR15 (DR15 donors N=7, ICCS): 43% | Percentage of donors demonstrating TNF-α responses, DR15 (DR15 donors N=7, ICCS): 43%
